From ChEMBL document CHEMBL1152667, “Synthesis and radiopharmacological investigation of 3-[4'-[(18)F]fluorobenzylidene]indolin-2-one as possible tyrosine kinase inhibitor” (Bioorg Med Chem, 2009)

Experiments:
Brain = assay: Biodistribution in Wistar rat brain assessed as standard uptake value at 1.7 MBq, iv administered as single dose measured after 10 mins post-injection by gamma counting; assay type: ADME, organism-based; conditions: in vivo
Liver [1] = assay: Biodistribution in Wistar rat liver at 1.7 MBq, iv administered as single dose measured after 60 mins post-injection by gamma counting; assay type: ADME, organism-based; conditions: in vivo, 1 h
Intestine = assay: Biodistribution in Wistar rat intestine at 1.7 MBq, iv administered as single dose measured after 60 mins post-injection by gamma counting; assay type: ADME, organism-based; conditions: in vivo, 1 h
Muscle tissue = assay: Biodistribution in Wistar rat muscle assessed as standard uptake value at 1.7 MBq, iv administered as single dose measured after 1 min post-injection by gamma counting; assay type: ADME, organism-based; conditions: in vivo
Heart = assay: Biodistribution in Wistar rat heart assessed as standard uptake value at 1.7 MBq, iv administered as single dose measured after 1 min post-injection by gamma counting; assay type: ADME, organism-based; conditions: in vivo
Thymus [2] = assay: Biodistribution in Wistar rat thymus assessed as standard uptake value at 1.7 MBq, iv administered as single dose measured after 10 mins post-injection by gamma counting; assay type: ADME, organism-based; conditions: in vivo
Lung [3] = assay: Biodistribution in Wistar rat lung assessed as standard uptake value at 1.7 MBq, iv administered as single dose measured after 5 mins post-injection by gamma counting; assay type: ADME, organism-based; conditions: in vivo
[4] = Metabolic stability in Wistar rat blood assessed as compound remaining at 30 MBq, iv after 5 mins by radio-HPLC analysis; assay type: ADME, organism-based; conditions: read-out: Stability
[5] = Biodistribution in Wistar rat brown adipose tissue assessed as standard uptake value at 1.7 MBq, iv administered as single dose measured after 30 mins post-injection by gamma counting; assay type: ADME, organism-based; conditions: in vivo, 0.5 h
Thymus [6] = assay: Biodistribution in Wistar rat thymus at 1.7 MBq, iv administered as single dose measured after 1 min post-injection by gamma counting; assay type: ADME, organism-based; conditions: in vivo
Liver [7] = assay: Biodistribution in Wistar rat liver assessed as standard uptake value at 1.7 MBq, iv administered as single dose measured after 5 mins post-injection by gamma counting; assay type: ADME, organism-based; conditions: in vivo
Kidney [8] = assay: Biodistribution in Wistar rat kidney assessed as standard uptake value at 1.7 MBq, iv administered as single dose measured after 10 mins post-injection by gamma counting; assay type: ADME, organism-based; conditions: in vivo
Spleen [9] = assay: Biodistribution in Wistar rat spleen assessed as standard uptake value at 1.7 MBq, iv administered as single dose measured after 1 min post-injection by gamma counting; assay type: ADME, organism-based; conditions: in vivo
[10] = Phase 1 elimination half life in Wistar rat at 30 MBq, iv by radio-HPLC analysis; assay type: ADME, organism-based; conditions: in vivo, read-out: beta t1/2 (converted)
Adrenal gland [11] = assay: Biodistribution in Wistar rat adrenal gland at 1.7 MBq, iv administered as single dose measured after 60 mins post-injection by gamma counting; assay type: ADME, organism-based; conditions: in vivo, 1 h
[12] = Ratio of drug level in liver to blood in Wistar rat at 1.7 MBq, iv administered as single dose measured after 60 mins post-injection; assay type: ADME, organism-based
Adrenal gland [13] = assay: Biodistribution in Wistar rat adrenal gland assessed as standard uptake value at 1.7 MBq, iv administered as single dose measured after 60 mins post-injection by gamma counting; assay type: ADME, organism-based; conditions: in vivo, 1 h
Lung [14] = assay: Biodistribution in Wistar rat lung assessed as standard uptake value at 1.7 MBq, iv administered as single dose measured after 60 mins post-injection by gamma counting; assay type: ADME, organism-based; conditions: in vivo, 1 h
[15] = Metabolic stability in Wistar rat plasma assessed as compound remaining at 0.5 MBq after 60 mins by radio-HPLC analysis; assay type: ADME, cell-free; conditions: read-out: Stability
Harderian gland [16] = assay: Biodistribution in Wistar rat harderian gland at 1.7 MBq, iv administered as single dose measured after 30 mins post-injection by gamma counting; assay type: ADME, organism-based; conditions: in vivo, 0.5 h
Femur [17] = assay: Biodistribution in Wistar rat femur assessed as standard uptake value at 1.7 MBq, iv administered as single dose measured after 1 min post-injection by gamma counting; assay type: ADME, organism-based; conditions: in vivo
[18] = Biodistribution in Wistar rat hair/skin assessed as standard uptake value at 1.7 MBq, iv administered as single dose measured after 10 mins post-injection by gamma counting; assay type: ADME, organism-based; conditions: in vivo
Blood [19] = assay: Biodistribution in Wistar rat blood assessed as standard uptake value at 1.7 MBq, iv administered as single dose measured after 10 mins post-injection by gamma counting; assay type: ADME, organism-based; conditions: in vivo
Liver [20] = assay: Biodistribution in Wistar rat liver at 1.7 MBq, iv administered as single dose measured after 10 mins post-injection by gamma counting; assay type: ADME, organism-based; conditions: in vivo
Harderian gland [21] = assay: Biodistribution in Wistar rat harderian gland at 1.7 MBq, iv administered as single dose measured after 60 mins post-injection by gamma counting; assay type: ADME, organism-based; conditions: in vivo, 1 h
Pancreas = assay: Biodistribution in Wistar rat pancreas assessed as standard uptake value at 1.7 MBq, iv administered as single dose measured after 1 min post-injection by gamma counting; assay type: ADME, organism-based; conditions: in vivo
[22] = Biodistribution in Wistar rat thyroid gland assessed as standard uptake value at 1.7 MBq, iv administered as single dose measured after 5 mins post-injection by gamma counting; assay type: ADME, organism-based; conditions: in vivo
[23] = Biodistribution in Wistar rat urine at 1.7 MBq, iv administered as single dose measured after 10 mins post-injection by gamma counting; assay type: ADME, organism-based; conditions: in vivo
Liver [24] = assay: Biodistribution in Wistar rat liver assessed as standard uptake value at 1.7 MBq, iv administered as single dose measured after 1 min post-injection by gamma counting; assay type: ADME, organism-based; conditions: in vivo
Thymus [25] = assay: Biodistribution in Wistar rat thymus at 1.7 MBq, iv administered as single dose measured after 60 mins post-injection by gamma counting; assay type: ADME, organism-based; conditions: in vivo, 1 h
Femur [26] = assay: Biodistribution in Wistar rat femur at 1.7 MBq, iv administered as single dose measured after 1 min post-injection by gamma counting; assay type: ADME, organism-based; conditions: in vivo
Kidney [27] = assay: Biodistribution in Wistar rat kidney assessed as standard uptake value at 1.7 MBq, iv administered as single dose measured after 5 mins post-injection by gamma counting; assay type: ADME, organism-based; conditions: in vivo
Spleen [28] = assay: Biodistribution in Wistar rat spleen at 1.7 MBq, iv administered as single dose measured after 10 mins post-injection by gamma counting; assay type: ADME, organism-based; conditions: in vivo
Harderian gland [29] = assay: Biodistribution in Wistar rat harderian gland assessed as standard uptake value at 1.7 MBq, iv administered as single dose measured after 30 mins post-injection by gamma counting; assay type: ADME, organism-based; conditions: in vivo, 0.5 h
Blood [30] = assay: Biodistribution in Wistar rat blood assessed as standard uptake value at 1.7 MBq, iv administered as single dose measured after 30 mins post-injection by gamma counting; assay type: ADME, organism-based; conditions: in vivo, 0.5 h
Harderian gland [31] = assay: Biodistribution in Wistar rat harderian gland at 1.7 MBq, iv administered as single dose measured after 10 mins post-injection by gamma counting; assay type: ADME, organism-based; conditions: in vivo
[32] = Metabolic stability in Wistar rat blood assessed as compound remaining at 0.5 MBq after 60 mins by radio-HPLC analysis; assay type: ADME, tissue-based; conditions: read-out: Stability
[33] = Biodistribution in Wistar rat thyroid gland at 1.7 MBq, iv administered as single dose measured after 1 min post-injection by gamma counting; assay type: ADME, organism-based; conditions: in vivo
Femur [34] = assay: Biodistribution in Wistar rat femur at 1.7 MBq, iv administered as single dose measured after 60 mins post-injection by gamma counting; assay type: ADME, organism-based; conditions: in vivo, 1 h
[35] = Biodistribution in Wistar rat urine at 1.7 MBq, iv administered as single dose measured after 5 mins post-injection by gamma counting; assay type: ADME, organism-based; conditions: in vivo
[36] = Biodistribution in Wistar rat thyroid gland at 1.7 MBq, iv administered as single dose measured after 5 mins post-injection by gamma counting; assay type: ADME, organism-based; conditions: in vivo
[37] = Ratio of drug level in brown adipose tissue to blood in Wistar rat at 1.7 MBq, iv administered as single dose measured after 60 mins post-injection; assay type: ADME, organism-based

O=C1Nc2ccccc2/C1=C/c1ccc([18F])cc1 showed an SUV (Brain) of 0.97%, a Drug uptake (Liver [1]) of 5.98 %ID and a Drug uptake (Intestine) of 30.16 %ID. For the same compound, the SUV (Muscle tissue) was 0.82%, the SUV (Heart) was 2.52% and the SUV (Thymus [2]) was 0.53%. The SUV (Lung [3]) was 1.3%, the remaining at 5 min [4] was 40% and the SUV [5] was 0.98%. The Drug uptake (Thymus [6]) was 0.5 %ID, the SUV (Liver [7]) was 3.74% and the SUV (Kidney [8]) was 2.27%. For the same compound, the SUV (Spleen [9]) was 0.98%, the half-life [10] was 8 s and the Drug uptake (Adrenal gland [11]) was 0.04 %ID. It also gave a Kp at 1 h [12] of 7.9, an SUV (Adrenal gland [13]) of 1.11% and an SUV (Lung [14]) of 0.27%. The remaining at 1 h, 0.5 MBq [15] was 96%, the Drug uptake (Harderian gland [16]) was 0.14 %ID and the SUV (Femur [17]) was 0.89%. For the same compound, the SUV [18] was 0.74%, the SUV (Blood [19]) was 0.47% and the Drug uptake (Liver [20]) was 17.84 %ID. The Drug uptake (Harderian gland [21]) was 0.06 %ID, the SUV (Pancreas) was 2.4% and the SUV [22] was 0.99%. The Drug uptake [23] was 6.98 %ID, the SUV (Liver [24]) was 2.98% and the Drug uptake (Thymus [25]) was 0.05 %ID. For the same compound, the Drug uptake (Femur [26]) was 0.44 %ID, the SUV (Kidney [27]) was 2.64% and the Drug uptake (Spleen [28]) was 0.14 %ID. For the same compound, the SUV (Harderian gland [29]) was 1.07%, the SUV (Blood [30]) was 0.27% and the Drug uptake (Harderian gland [31]) was 0.25 %ID. The remaining at 1 h, 0.5 MBq [32] was 84%, the Drug uptake [33] was 0.09 %ID and the Drug uptake (Femur [34]) was 0.11 %ID. It also gave a Drug uptake [35] of 2.39 %ID, a Drug uptake [36] of 0.08 %ID and a Kp at 1 h [37] of 4.3.
